Measurements from patent US10253075B2, “WT1 antigenic polypeptide, and anti-tumor agent containing said polypeptide” (Tella, Inc., priority 2014, dated 2019).

Assays:
Type in all cases: cell-based, human
[1] = tested on: CD4-positive T cells (Th cells); experiment: Induction of antigen-specific Th cells from PBMC; IFN-γ intracellular staining (ICS); parameters: key to induction of antigen-specific T cells: The symbol “+” in Table 7 indicates that the induction of antigen-specific T cells was observed; the symbol “−” indicates that the induction of antigen-specific T cells was not observed; conditions: for best peptide (%) / induction efficiency (%): CD4; for best peptide (%): percentage of the 6 kinds of PBMCs in which the peptide was evaluated as best peptide; for induction efficiency (%): proportion of the 6 kinds of donor PBMCs induced to antigen-specific T cells; for induction of antigen-specific T cells: induced T cell CD4, polypeptide 5 μM, IFN-γ-producing cells, day 21; for best peptide: highest ratio of antigen-specific IFN-γ-producing cells
Protocol: (§1) From the blood that was donated from 6 healthy human volunteers, human peripheral blood mononuclear cells (PBMC) were separated using a Ficoll-Paque (manufactured by Amersham Bioscience Inc.). The separated PBMC was cultured at 37° C. for 1 hour in a cell culture flask (manufactured by ED Biosciences) in a CO2 incubator using a serum-free AIM-V medium, thereby to remove non-adherent cells. Then, adherent cells remaining on the flask were started to culture in the AIM-V medium in the presence of a recombinant GM-CSF (10 ng/ml, manufactured by Wako Company) and a recombinant IL-4 (10 ng/ml, manufactured by Wako Company). After 3 days from the start of culture, the medium was replaced by an AIM-V medium supplemented with GM-CSF and IL-4, and dendritic cells (DC) were recovered using trypsin after 7 days from the start of culture. These DCs were used as antigen-presenting cells (APC) in the induction of antigen-specific T cells or in the analysis of antigen-specific cytokine (IFN-γ) production from T cells.
(§2) The foregoing PBMCs separated from healthy human volunteers were seeded to a density of 2×10^6 cells/well in a 24-well plate (manufactured by BD Biosciences). Then, culturing the cells were started in an AIM-V medium (1 ml/well) supplemented with each polypeptide (5 μM) derived from the WT1 protein described above inducing antigen-specific T cells, and serum at 37° C. in a CO2 incubator.
(§3) After 7 days from the start of culture, the above DC (autologous DC) was added to PBMC having the same derivation. Further, the medium was replaced with a serum-free AIM-V medium (manufactured by Life Technologies Inc.) supplemented with OK-432 (0.1 KE/ml, trade name: picibanil, manufactured by Chugai Pharmaceutical Co., Ltd.), and culture was performed for 2 hours. It should be noted that picibanil (OK-432) is a formulation obtained by treating an attenuated natural mutant strain (Su strain) of Group A Streptococcus with penicillin, and it is known that various cytokines (immune factor) are produced with use of picibanil to elicit an immune enhancing effect.
(§4) Then, after 2 hours of culture, the cells were treated for 50 minutes with addition of mitomycin C (MMC, manufactured by Kyowa Hakko Kirin Co., Ltd.). Furthermore, co-culture was performed in an AIM-V medium containing autologous DC and 5% human AB serum in which T cells are inactivated (Hokkaido Red Cross Center) in the presence of each polypeptide (5 μM) for inducing the antigen-specific T cells, thereby to re-stimulate the T cells. Two days later, a recombinant IL-2 (manufactured by Shionogi Pharmaceutical Institute Co., Ltd.) was added thereto to a final concentration of 10 U/ml. After 14 days from the start of co-culture, the autologous DC was pulsed with each polypeptide (5 μM) for inducing the antigen-specific T cells for 2 hours, and then treated with MMC. Such MMC treated cells as APC were used for re-stimulating T cells. In addition, on or after 14 days from the start of co-culture, culture was performed at the concentration of 20 U/ml of recombinant IL-2. After that, T cells on day 21 of the co-culture were collected by centrifugation or the like and subjected to an analysis of antigen-specific reactivity shown below.
(§5) T cells that were induced as described above (T cells on day 21 of the co-culture) and autologous DCs were seeded in the same well of a 96-well plate (manufactured by BD Biosciences) to a density of 5×10^4 cells/well and 5×10^3 cells/well, respectively. Then, the cells were cultured in the presence of each polypeptide (HE 4, KE 1, KE 5, H/K-HELP 1, H/K-HELP 2 or H/K-HELP 3) (5 μM) for the analysis of antigen-specific reactivity. In addition, a group without addition of such polypeptide was prepared as a control group. […]

[2] = tested on: CD8-positive T cells (CTL); experiment: Induction of antigen-specific CTL from PBMC; IFN-γ intracellular staining (ICS); parameters: key to induction of antigen-specific T cells: The symbol “+” in Table 7 indicates that the induction of antigen-specific T cells was observed; the symbol “−” indicates that the induction of antigen-specific T cells was not observed; conditions: for best peptide (%) / induction efficiency (%): CD8; for best peptide (%): percentage of the 6 kinds of PBMCs in which the peptide was evaluated as best peptide; for induction efficiency (%): proportion of the 6 kinds of donor PBMCs induced to antigen-specific T cells; for induction of antigen-specific T cells: induced T cell CD8, polypeptide 5 μM, IFN-γ-producing cells, day 21; for best peptide: highest ratio of antigen-specific IFN-γ-producing cells
Protocol: as §1, §2, §3, §4, §5

[3] = tested on: CD4-positive T cells and CD8-positive T cells; experiment: Induction of antigen-specific T cells from PBMC, CD4 and CD8 taken together; conditions: for best peptide (%): CD4 + CD8, percentage of PBMCs in which the peptide was evaluated as best peptide
Protocol: as §1, §2, §3
Then, after 2 hours of culture, the cells were treated for 50 minutes with addition of mitomycin C (MMC, manufactured by Kyowa Hakko Kirin Co., Ltd.). Furthermore, co-culture was performed in an AIM-V medium containing autologous DC and 5% human AB serum in which T cells are inactivated (Hokkaido Red Cross Center) in the presence of each polypeptide (5 μM) for inducing the antigen-specific T cells, thereby to re-stimulate the T cells. Two days later, a recombinant IL-2 (manufactured by Shionogi Pharmaceutical Institute Co., Ltd.) was added thereto to a final concentration of 10 U/ml. […]

## KRYFKLSHLQMHSRKHGGGGGRMFPNAPYL (Fusion polypeptide in which HE4, 5-Glycine linker and KE1 are fused in this order from the N-terminal) [H/K-HELP1, fused polypeptide: HE4, five-glycine linker, KE1 from the N-terminus]
[1]
  best peptide (%): 0.00%
  induction efficiency (%): 33.33%
[1]; donor 1 PBMC
  induction of antigen-specific T cells: +
[1]; donor 2 PBMC
  induction of antigen-specific T cells: −
[1]; donor 3 PBMC
  induction of antigen-specific T cells: −
[1]; donor 4 PBMC
  induction of antigen-specific T cells: −
[1]; donor 5 PBMC
  induction of antigen-specific T cells: +
[1]; donor 6 PBMC
  induction of antigen-specific T cells: −
[2]
  best peptide (%): 0.00%
  induction efficiency (%): 16.67%
[2]; donor 1 PBMC
  induction of antigen-specific T cells: −
[2]; donor 2 PBMC
  induction of antigen-specific T cells: −
[2]; donor 3 PBMC
  induction of antigen-specific T cells: −
[2]; donor 4 PBMC
  induction of antigen-specific T cells: −
[2]; donor 5 PBMC
  induction of antigen-specific T cells: +
[2]; donor 6 PBMC
  induction of antigen-specific T cells: −
[3]
  best peptide (%): 0.00%
[3]; compared with Comparative Example 1 (mix of the epitopes), 6 donors
  activity of inducing antigen-specific T cells in CD4-positive and CD8-positive T cells, comparison in words: not different from those of Comparative Example 1

## KRYFKLSHLQMHSRKHGGGGGRMFPNAPYLGGGGGCYTWNQMNL (Fusion polypeptide in which HE4, 5-Glycine linker, KE1, 5-Glycine linker and KE5 are fused in this order from the N-terminal) [H/K-HELP2, fused polypeptide: HE 4, KE 1 and KE 5 from the N-terminus with five-glycine linkers]
[1]
  best peptide (%): 33.33%
  induction efficiency (%): 50.00%
[1]; donor 1 PBMC
  induction of antigen-specific T cells: −
[1]; donor 2, CD4
  best peptide: H/K-HELP2
[1]; donor 2 PBMC
  induction of antigen-specific T cells: +
[1]; donor 3, CD4
  best peptide: H/K-HELP2
[1]; donor 3 PBMC
  induction of antigen-specific T cells: +
[1]; donor 4 PBMC
  induction of antigen-specific T cells: −
[1]; donor 5 PBMC
  induction of antigen-specific T cells: +
[1]; donor 6 PBMC
  induction of antigen-specific T cells: −
[2]
  best peptide (%): 33.33%
  induction efficiency (%): 50.00%
[2]; donor 1, CD8
  best peptide: H/K-HELP2
[2]; donor 1 PBMC
  induction of antigen-specific T cells: +
[2]; donor 2 PBMC
  induction of antigen-specific T cells: −
[2]; donor 3 PBMC
  induction of antigen-specific T cells: +
[2]; donor 4 PBMC
  induction of antigen-specific T cells: −
[2]; donor 5 PBMC
  induction of antigen-specific T cells: −
[2]; donor 6, CD8
  best peptide: H/K-HELP2
[2]; donor 6 PBMC
  induction of antigen-specific T cells: +
[3]
  best peptide (%): 33.33%

## RMFPNAPYLGGGGGKRYFKLSHLQMHSRKHGGGGGCYTWNQMNL (Fusion polypeptide in which KE1, 5-Glycine linker, HE4, 5-Glycine linker and KE5 are fused in this order from the N-terminal) [H/K-HELP3, fused polypeptide: KE 1, HE 4 and KE 5 from the N-terminus with five-glycine linkers]
[1]
  best peptide (%): 50.00%
  induction efficiency (%): 66.67%
[1]; compared with Example 1, 6 donors
  stimulation of CD4-positive T cells of different derivation to induce IFN-γ-producing Th1 cells, comparison in words: more numerous CD4-positive T cells of different derivation are stimulated, as compared to Example 1
[1]; donor 1, CD4
  best peptide: H/K-HELP3
[1]; donor 1 PBMC
  induction of antigen-specific T cells: +
[1]; donor 2 PBMC
  induction of antigen-specific T cells: −
[1]; donor 3 PBMC
  induction of antigen-specific T cells: +
[1]; donor 4, CD4
  best peptide: H/K-HELP3
[1]; donor 4 PBMC
  induction of antigen-specific T cells: +
[1]; donor 5, CD4
  best peptide: H/K-HELP3
[1]; donor 5 PBMC
  induction of antigen-specific T cells: +
[1]; donor 6 PBMC
  induction of antigen-specific T cells: −
[2]
  best peptide (%): 50.00%
  induction efficiency (%): 50.00%
[2]; donor 1 PBMC
  induction of antigen-specific T cells: −
[2]; donor 2 PBMC
  induction of antigen-specific T cells: −
[2]; donor 3, CD8
  best peptide: H/K-HELP3
[2]; donor 3 PBMC
  induction of antigen-specific T cells: +
[2]; donor 4, CD8
  best peptide: H/K-HELP3
[2]; donor 4 PBMC
  induction of antigen-specific T cells: +
[2]; donor 5, CD8
  best peptide: H/K-HELP3
[2]; donor 5 PBMC
  induction of antigen-specific T cells: +
[2]; donor 6 PBMC
  induction of antigen-specific T cells: −
[3]
  best peptide (%): 50.00%
